What was measured:
ASPD = ASPD (Homo sapiens, UniProt P05067); assay: Surface plasmon resonance (SPR), biotinylated AAT peptide on chip, ASPD as ligand; assay type: binding; conditions: peptide solid phase on chip
Source text: Biotin was bound to each C-terminal side of the above-mentioned AAT peptides 01 to […] and made into a solid phase on a chip, and a dissociation constant was obtained by surface plasmon resonance (SPR) using ASPD as a ligand.

[1] = target: T1, 105 kDa band (Na+/K+-ATPase α3) (Rattus norvegicus, UniProt P06687); assay: Far-western blotting of cell extracts; assay type: binding; conditions: extracts of neurons and HEK293 cells; detection with haASD1 (ASPD) or 6E10 (Aβ monomer)
T1 construct: endogenous in cells; host or cells: rat hippocampus-derived primary cultured neurons (mature)
Procedure: Extracts were prepared with RadioImmunoPrecipitation Assay (RIPA) respectively from the rat hippocampus-derived primary cultured neurons (number of culture days shown in FIG. 4) and the HEK293 cells, and protein amounts of the extracts were determined. Then, predetermined amounts of the extracts were subjected to electrophoresis with SDS-PAGE and transcribed to a nitrocellulose membrane, and reacted with native ASPD or an Aβ monomer for a predetermined period of time. The binding of the native ASPD was detected with anti-ASPD antibodies haASD1, and the binding of the Aβ monomer was detected with 6E10 that was commercially available anti-Aβ monomer antibodies (far-western blotting).
Thus, the synthetic ASPD is considered to be equivalent to the native ASPD, and after that, analysis was carried out using the synthetic ASPD.

[2] = test system: mature rat hippocampus-derived primary cultured neurons; assay: Inhibition effect of AAT peptides on ASPD apoptotic activity (neutralization); assay type: cell-based; conditions: 4 μM synthetic ASPD, 24 hours; for inhibition effect on ASPD apoptotic activity compared with AAT01: 0.14 μM peptide, FIG. 19
Procedure: Based on the fact that anti-ASPD antibodies bind to ASPD to inhibit interaction between ASPD and NAKα3 that is a target molecule to suppress death of neurons, a peptide having similar effect was searched. For this purpose, ASPD immobilized to a microtiter plate was screened through use of (commercially available) phage display library in which a library of random 12 amino acids was expressed on a virus surface, and a converged sequence was analyzed. […] A peptide having neutralization activity was named as an Anti-AD toxicity (AAT) peptide.
The apoptotic activity was measured 24 hours later and compared with that of a control to which the AAT peptide has not been administered, whereby the inhibition activity was calculated.

ASPD, sequence (P05067 672-713 limits assumed): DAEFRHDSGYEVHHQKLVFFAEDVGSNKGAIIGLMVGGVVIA

Row | Compound | ka (ASPD) | kd (ASPD) | also measured
1 | CC(C)C[C@H](NC(=O)[C@H](CC(N)=O)NC(=O)[C@H](Cc1ccc(O)cc1)NC(=O)[C@H](Cc1c[nH]c2ccccc12)NC(=O)[C@H](CC(N)=O)NC(=O)[C@H](Cc1ccccc1)NC(=O)[C@@H](N)Cc1c[nH]cn1)C(=O)N[C@@H](Cc1c[nH]c2ccccc12)C(=O)N[C@@H](CCCNC(=N)N)C(=O)N[C@H](C(=O)N[C@@H](CCC(N)=O)C(=O)N[C@@H](Cc1ccc(O)cc1)C(=O)N[C@@H](CCCCNC(=O)CCCC[C@@H]1SC[C@@H]2NC(=O)N[C@@H]21)C(N)=O)C(C)C [C-terminal biotinylated AAT01] | 7.64 × 10^3 | 4.41 × 10^-4 | 
2 | Aβ monomer: peptide cleaved from amyloid precursor protein (APP) with β- and γ-secretase |  |  | binding to 105 kDa band in far-western blotting [1]: did not bind to the band
3 | CC(C)C[C@H](NC(=O)[C@@H](N)Cc1c[nH]cn1)C(=O)N[C@@H](CC(N)=O)C(=O)N[C@@H](Cc1c[nH]c2ccccc12)C(=O)N[C@@H](Cc1c[nH]c2ccccc12)C(=O)N[C@@H](Cc1c[nH]cn1)C(=O)N[C@@H](CO)C(=O)N[C@@H](Cc1c[nH]c2ccccc12)C(=O)N[C@@H](Cc1ccc(O)cc1)C(=O)N1CCC[C@H]1C(=O)N[C@@H](C)C(=O)N[C@@H](CCCNC(=N)N)C(=O)N[C@@H](CCCCNC(=O)CCCC[C@@H]1SC[C@@H]2NC(=O)N[C@@H]21)C(N)=O [C-terminal biotinylated AAT02] | 5.60 × 10^3 | 4.62 × 10^-4 | 
4 | HFNWDW (ASPD-interacting motif/peptide) [AAT05] |  |  | inhibition effect on ASPD apoptotic activity compared with AAT01 [2]: equal to or more than that of the AAT01
5 | HFNWD (ASPD-interacting motif/peptide) [AAT04] |  |  | inhibition effect on ASPD apoptotic activity compared with AAT01 [2]: equal to or more than that of the AAT01
6 | CC(C)C[C@H](NC(=O)[C@H](Cc1c[nH]c2ccccc12)NC(=O)[C@H](CC(N)=O)NC(=O)[C@H](CC(C)C)NC(=O)[C@@H](N)Cc1c[nH]cn1)C(=O)N[C@@H](CO)C(=O)N[C@@H](Cc1c[nH]c2ccccc12)C(=O)N[C@@H](Cc1ccccc1)C(=O)N1CCC[C@H]1C(=O)N[C@@H](CO)C(=O)N[C@@H](CCCNC(=N)N)C(=O)N[C@@H](Cc1c[nH]cn1)C(=O)N[C@@H](CCCCNC(=O)CCCC[C@@H]1SC[C@@H]2NC(=O)N[C@@H]21)C(N)=O [C-terminal biotinylated AAT03] | 4.96 × 10^3 | 4.39 × 10^-4 | 
7 | HFNW (ASPD-interacting motif/peptide) [AAT06] |  |  | inhibition effect on ASPD apoptotic activity compared with AAT04 ([2]; 2.8 μM peptide, FIG. 20): equal to or higher than that of the AAT04
